Test results: US9211310B2, “Use of a Chinese medicine composition in preparing medicaments for treating secondary prevention of myocardial infarction” (TASLY PHARMACEUTICAL GROUP CO., LTD, priority 2010, dated 2015)

Tested on: patients after acute myocardial infarction
Assay: Life quality, Seattle Angina Questionnaire (SAQ), same clinical trial
Format: in vivo, human
Conditions: 1 month after treatment
Source text: 3508 patients who were in accordance with the diagnostic standards of AMI for 28 days to 2 years and differentiated as Qi deficiency and blood stagnation syndrome by TCM were studied. 0.5 g Chinese medicine composition prepared by the method of EXAMPLE 1 (Coded as QSYQ) was administrated half an hour after meal, 3 times per day.
There were 19 questions in the Seattle angina questionnaire (SAQ), including 5 parts: physical limitation (PL), anginal stability (AS), anginal frequency (AF), treatment satisfaction (TS) and disease perception (DP). After being given necessary explanation by doctors, the questions were answered independently by patients.
They included the overall survival time, angina pectoris score, TCM symptom score and life quality score, where angina pectoris score, TCM symptom score and life quality score were evaluated at randomization, in 1st, 3rd, 6th, 9th, 12th month after treatment and 18th month after follow-up.
All evaluation results of SAQ were described during the period of observation, and Wilcoxon rank sum test was used for inter-group comparison.
The evaluation results in the SAQ were depicted in different observations, and inter-group comparison was tested by Wilcoxon Rank-sum test.

Compound: CC(=O)Oc1ccccc1C(=O)O [Control group, aspirine]
- SAQ 2nd question: Clearly increased, % of cases (FAS): (0.92%)
- SAQ 2nd question: Clearly increased, cases (FAS): 16
- SAQ 2nd question: Clearly reduced, % of cases (FAS): (16.50%)
- SAQ 2nd question: Clearly reduced, cases (FAS): 287
- SAQ 2nd question: Same, % of cases (FAS): (49.05%)
- SAQ 2nd question: Same, cases (FAS): 853
- SAQ 2nd question: Slightly increased, % of cases (FAS): (3.05%)
- SAQ 2nd question: Slightly increased, cases (FAS): 53
- SAQ 2nd question: Slightly reduced, % of cases (FAS): (30.48%)
- SAQ 2nd question: Slightly reduced, cases (FAS): 530
- SAQ 3rd question: 1-2 times per week, % of cases (FAS): (30.48%)
- SAQ 3rd question: 1-2 times per week, cases (FAS): 530
- SAQ 3rd question: 1-3 times per day, % of cases (FAS): (3.05%)
- SAQ 3rd question: 1-3 times per day, cases (FAS): 53
- SAQ 3rd question: <1 time per week, % of cases (FAS): (16.50%)
- SAQ 3rd question: <1 time per week, cases (FAS): 287
- SAQ 3rd question: No onset, % of cases (FAS): (0.00%)
- SAQ 3rd question: No onset, cases (FAS): 0
- SAQ 3rd question: ≧3 times per week, % of cases (FAS): (49.05%)
- SAQ 3rd question: ≧3 times per week, cases (FAS): 853
- SAQ 3rd question: ≧4 times per day, % of cases (FAS): (0.92%)
- SAQ 3rd question: ≧4 times per day, cases (FAS): 16
- SAQ Question 1-3: Mildly limited, number of patients (FAS): 126
- SAQ Question 1-3: Mildly limited, percent of patients (FAS): (7.23%)
- SAQ Question 1-3: Moderately limited, number of patients (FAS): 34
- SAQ Question 1-3: Moderately limited, percent of patients (FAS): (1.95%)
- SAQ Question 1-3: Not limited, number of patients (FAS): 1261
- SAQ Question 1-3: Not limited, percent of patients (FAS): (72.39%)
- SAQ Question 1-3: Other reasons, number of patients (FAS): 9
- SAQ Question 1-3: Other reasons, percent of patients (FAS): (0.52%)
- SAQ Question 1-3: Severely limited, number of patients (FAS): 5
- SAQ Question 1-3: Severely limited, percent of patients (FAS): (0.29%)
- SAQ Question 1-3: Slightly limited, number of patients (FAS): 307
- SAQ Question 1-3: Slightly limited, percent of patients (FAS): (17.62%)
- SAQ Question 1-4: Mildly limited, number of patients (FAS): 349
- SAQ Question 1-4: Mildly limited, percent of patients (FAS): (20.05%)
- SAQ Question 1-4: Moderately limited, number of patients (FAS): 159
- SAQ Question 1-4: Moderately limited, percent of patients (FAS): (9.13%)
- SAQ Question 1-4: Not limited, number of patients (FAS): 618
- SAQ Question 1-4: Not limited, percent of patients (FAS): (35.50%)
- SAQ Question 1-4: Other reasons, number of patients (FAS): 12
- SAQ Question 1-4: Other reasons, percent of patients (FAS): (0.69%)
- SAQ Question 1-4: Severely limited, number of patients (FAS): 35
- SAQ Question 1-4: Severely limited, percent of patients (FAS): (2.01%)
- SAQ Question 1-4: Slightly limited, number of patients (FAS): 568
- SAQ Question 1-4: Slightly limited, percent of patients (FAS): (32.62%)
- SAQ Question 1-5: Mildly limited, number of patients (FAS): 315
- SAQ Question 1-5: Mildly limited, percent of patients (FAS): (18.09%)
- SAQ Question 1-5: Moderately limited, number of patients (FAS): 196
- SAQ Question 1-5: Moderately limited, percent of patients (FAS): (11.26%)
- SAQ Question 1-5: Not limited, number of patients (FAS): 648
- SAQ Question 1-5: Not limited, percent of patients (FAS): (37.22%)
- SAQ Question 1-5: Other reasons, number of patients (FAS): 10
- SAQ Question 1-5: Other reasons, percent of patients (FAS): (0.57%)
- SAQ Question 1-5: Severely limited, number of patients (FAS): 32
- SAQ Question 1-5: Severely limited, percent of patients (FAS): (1.84%)
- SAQ Question 1-5: Slightly limited, number of patients (FAS): 540
- SAQ Question 1-5: Slightly limited, percent of patients (FAS): (31.02%)
- SAQ Question 1-9: Mildly limited, % of cases (FAS): (16.68%)
- SAQ Question 1-9: Mildly limited, cases (FAS): 284
- SAQ Question 1-9: Moderately limited, % of cases (FAS): (21.02%)
- SAQ Question 1-9: Moderately limited, cases (FAS): 358
- SAQ Question 1-9: Not limited, % of cases (FAS): (2.88%)
- SAQ Question 1-9: Not limited, cases (FAS): 49
- SAQ Question 1-9: Other reasons, % of cases (FAS): (6.17%)
- SAQ Question 1-9: Other reasons, cases (FAS): 105
- SAQ Question 1-9: Severely limited, % of cases (FAS): (41.93%)
- SAQ Question 1-9: Severely limited, cases (FAS): 714
- SAQ Question 1-9: Slightly limited, % of cases (FAS): (11.33%)
- SAQ Question 1-9: Slightly limited, cases (FAS): 193
- SAQ 2nd question: Clearly increased, % of cases (PP): (0.54%)
- SAQ 2nd question: Clearly increased, cases (PP): 8
- SAQ 2nd question: Clearly reduced, % of cases (PP): (16.75%)
- SAQ 2nd question: Clearly reduced, cases (PP): 248
- SAQ 2nd question: Same, % of cases (PP): (49.63%)
- SAQ 2nd question: Same, cases (PP): 735
- SAQ 2nd question: Slightly increased, % of cases (PP): (2.90%)
